Laboratory results taken from US20040171954A1, “Methods for determining whether to provide an inhibitor of sympathetic nervous system activity to a human being suffering from an autoimmune disease or fibryomyalgia” (CNS-Rheumatology, Inc., priority 2003, published 2004).
Like-named read-outs stand apart in the source and are kept apart here.

What was measured:
[1] = tested on: patient one suffering from Ankylosing Spondylitis; assay: Clinical course of a patient with ankylosing spondylitis (Example 7); assay type: in vivo, human; conditions: for control of the disease by prior therapy: before pramipexole
[2] = tested on: patient two suffering from autoimmune hemolytic anemia with leukopenia; conditions: one patient
Description: Patient two suffered from autoimmune hemolytic anemia. The patient had leukopenia (reduced white blood cell (WBC) count; 2,300 WBC). Steroids were recommended, but the patient refused. The patient's heart rate variability was monitored using system 10: vagus, 0.17; sympathetic, 52; tension, 199; total power, 201. […] Therefore, pramipexole was prescribed for administration at night to address sympathetic overactivity. The patient's symptoms improved, and their WBC count began to increase (2400). These changes correlated with a reduction in excessive sympathetic nervous system activity: vagus, 0.22; sympathetic, 45; tension, 147; total power, 294.
The patient discontinued pramipexole against medical advice. WBC decreased to 2100 as excessive sympathetic nervous system activity increased: vagus, 0.20; sympathetic, 70; tension, 236; total power, 280.

[3] = tested on: sympathetic nervous system activity in the heart; conditions: for sympathetic / tension / total power / vagus: one patient on pramipexole plus steroid therapy; for sympathetic (heart rate variability) / tension (heart rate variability) / total power (heart rate variability) / vagus (heart rate variability): one patient
Description: This system is commercially available as The OmegaWave Sport Technology System, which is sold by OmegaWave Sport, Inc., 2732 Sunnyview Lane, Eugene, Oreg. 97405, USA. […] FIG. 4 illustrates one embodiment of components of the system and various electrode/sensor placements on the human body. System 10 is adapted to perform the following tests on a human body: Heart Rate Variability; Differential electrocardiogram (ECG); Omega Wave; Jump; and Stimulus Response. In the practice of the present invention, system 10 is used to perform the Heart Rate Variability test.
Referring to FIG. 7, a diagram that illustrates the steps of conducting a heart rate variability test in accordance with the present invention is shown. In step 110, a person receiving a test (PRT) positions him or herself for sensor attachment. In step 112, the sensors are attached. In step 114, a user selects the desired heart rate variability test from CD 50. In step 115, ID 40 is initialized for appropriate data sensing and data propagation by CD 50. In step 116, the PRT is instructed to attain or maintain a state of rest. In step 117, the machine executable steps of the selected test(s) is/are carried out by CD 50. […] A description of machine executable steps of the heart rate variability test selected in step 114 of FIG. 7 is now presented. Processing cardiac signals as discussed below permits quantitative and qualitative analysis of the functional state of cardiac activity.
In this representative heart rate variability test, four electrode sensors are preferably utilized and they are preferably placed one each on the wrists and ankles. One sensor electrode is a ground and the other three collect standard ECG data or the like. Alternative sensor placement may be utilized. The heart rate variability test is based on the registration of cardiac contractions of standard electrocardiogram (ECG) readings over the course of a fixed span of time. The test records the change of period length (in seconds) between each cardiac contraction which is the time between ECG spikes, which are designated with the letter R.
After initialization of ID 40, cardiac muscle electrical activity is recorded for a fixed time period, e.g., 128 seconds (step 152). A fixed number of consecutive heart beat intervals (RR intervals), e.g., 100, is selected and analyzed (step 154). The intervals are processed in this exemplary method using a fast Fourier transformation to achieve frequency spectrum analysis (step 156) and the density of interval frequencies is plotted in a frequency spectrum-gram (step 158). Frequency spectrum analysis is known in the art as described supra. The following frequency ranges are preferably plotted: high frequency=0.15 to 0.4 Hz; low frequency=0.04 to 0.15 Hz; and very low frequency=0.004 to 0.04 Hz.
In step 172, various indices for cardiovascular system performance are calculated based on frequency spectrum and other data and these include: Vagus (parasympathetic) Regulation (VR); Humoral Regulation (HR); Sympathetic Regulation (SR); Tension (Stress) Index; Share of aperiodic influences; Standard deviation; and Frequency of Cardiac Contractions (FCC). Calculation of these or related indices is known in the art. (See, e.g., Baevskiy, R. M., et al., Mathematical Analysis of Changes in Heart Rate Rhythm Under Stress, Moscow Science, 1984). These indices may be interpreted to generate textual conclusions about the functional state of cardiac activity.
The OmegaWave Sport Technology System, described herein and in published United States patent application serial number U.S. 2002/0045835 A1, provides three values that can be used singly, or in combination, to determine whether sympathetic nervous system activity predominates over parasympathetic nervous system activity in the heart: activity of the vagus (parasympathetic) regulation mechanisms; activity of the sympathetic regulation mechanisms; and Tension index.

[4] = tested on: patient suffering from severe, previously untreatable, psoriatic arthropathy; assay: Clinical course of a patient with severe psoriatic arthropathy (Example 3); assay type: in vivo, human; conditions: one patient
Description: The following heart rate variability measurements were made in the patient using system 10: vagus, 0.16; sympathetic, 54; tension, 220; total power, 283.

[5] = after the patient discontinued pramipexole
[6] = pramipexole 2.0 mg per day at bedtime, with etanercept
[7] = pramipexole increased over 4 weeks to 4.5 mg per day at bedtime

## CN(Cc1cnc2nc(N)nc(N)c2n1)c1ccc(C(=O)N[C@@H](CCC(=O)O)C(=O)O)cc1 [methotrexate]
[1]
  control of the disease by prior therapy: failed to control

## CCCN[C@H]1CCc2nc(N)sc2C1 [pramipexole]
[2]; [5]
  WBC: 2100
[2]; on pramipexole at night, 2,300 before treatment
  WBC count: 2400
[3]; Dec. 11, 2001
  sympathetic: 61
  tension: 374
  total power: 102
  vagus: .10
[3]; Feb. 5, 2002
  sympathetic: 87
  tension: 569
  total power: 128
  vagus: .09
[3]; Nov. 14, 2001
  sympathetic: 93
  tension: 1278
  total power: 24
  vagus: .05
[3]; Oct. 10, 2001
  sympathetic: 93
  tension: 1444
  total power: 29
  vagus: .05
[3]; [5]
  sympathetic (heart rate variability): 70
  tension (heart rate variability): 236
  total power (heart rate variability): 280
  vagus (heart rate variability): 0.20
[3]; on pramipexole at night
  sympathetic (heart rate variability): 45
  tension (heart rate variability): 147
  total power (heart rate variability): 294
  vagus (heart rate variability): 0.22
[3]; [6]
  sympathetic (heart rate variability): 54
  tension (heart rate variability): 220
  total power (heart rate variability): 283
  vagus (heart rate variability): 0.16
[3]; [7]
  sympathetic (heart rate variability): 43
  total power (heart rate variability): 319
  vagus (heart rate variability): 0.19
[3]; pramipexole increased over 4 weeks to 4.5 mg per day at bedtime, now normal
  tension (heart rate variability): 145

## C[C@]12C=CC(=O)C=C1CC[C@@H]1[C@@H]2C(=O)C[C@@]2(C)[C@H]1CC[C@]2(O)C(=O)CO [prednisone]
[1]; prednisone 40 mg per day
  adverse outcome of excessive prednisone: avascular necrosis of both hips and hip replacement

## etanercept
[1]
  control of the disease by prior therapy: failed to control
[4]; fifteen years, before pramipexole
  response of chronic joint flares and synovial thickening to treatment: resistant
[4]; over six weeks, pramipexole 2.0 mg per day at bedtime
  effectiveness of etanercept after pramipexole was added: became more effective
